In patent US10532066B2, “Surfactant lipids, compositions thereof, and uses thereof” (National Jewish Health, priority 2007, dated 2020):
Entries after “also recorded” stand apart in the source; their conditions may differ.

Experiments:
multiple TLRs = experiment: Activation of primary bronchial epithelial cells by multiple TLRs (IL-8, Example 9); assay type: cell-based, human; settings: 200 ug/ml POPG, 24 h
Protocol: Monolayers of normal human bronchial epithelial cells were stimulated with the TLR3 agonist, polyI:C (0.1 ug/ml); the TLR5 agonist, flagellin (10 ng/ml) and the TLR7/8 agonist polyU (100 ug/ml) for 24 h in either the absence or presence of 200 ug/ml POPG, or POPC as indicated. Cultures were also treated with POPG or POPC alone, as additional controls. After 24 h the medium was harvested and centrifuged to remove non-adherent cells, and processed to detect IL-8 production by ELISA. Values shown in FIG. 33 are averages±SE for 3 independent experiments.

BALB/c mice = experiment: Sepsis model: intravenous LPS, intratracheal phospholipids; assay type: in vivo, mouse; settings: LPS 50 μg i.v., phospholipids 50 μg intratracheal, 3 h
Protocol: FIG. 10. Anionic phospholipids modulate lung inflammation induced by intravenously administered LPS. Phospholipids were dried under nitrogen and hydrated, and liposomes were formed using a Liposofast™. […] At the same time, LPS (50 μg) in 200 μl of PBS was intravenously administered to mice.
Next, the effect of phospholipids were examined in a sepsis model in mice. LPS (50 μG/200 μl) was intravenously administered to mice via the tail vein and phospholipids were administered intratracheally at the same time. Three hours after stimulation, BALF was collected (FIG. 10).

TLR2 = TLR2 (Homo sapiens, UniProt O60603); experiment: TLR agonist IL-8 production in primary human neutrophils, TLR2; assay type: cell-based; design: endogenous in cells; host or cells: primary human neutrophils; settings: Pam3Cys, 5-24 h
Chain of TLR2 (O60603 21-784): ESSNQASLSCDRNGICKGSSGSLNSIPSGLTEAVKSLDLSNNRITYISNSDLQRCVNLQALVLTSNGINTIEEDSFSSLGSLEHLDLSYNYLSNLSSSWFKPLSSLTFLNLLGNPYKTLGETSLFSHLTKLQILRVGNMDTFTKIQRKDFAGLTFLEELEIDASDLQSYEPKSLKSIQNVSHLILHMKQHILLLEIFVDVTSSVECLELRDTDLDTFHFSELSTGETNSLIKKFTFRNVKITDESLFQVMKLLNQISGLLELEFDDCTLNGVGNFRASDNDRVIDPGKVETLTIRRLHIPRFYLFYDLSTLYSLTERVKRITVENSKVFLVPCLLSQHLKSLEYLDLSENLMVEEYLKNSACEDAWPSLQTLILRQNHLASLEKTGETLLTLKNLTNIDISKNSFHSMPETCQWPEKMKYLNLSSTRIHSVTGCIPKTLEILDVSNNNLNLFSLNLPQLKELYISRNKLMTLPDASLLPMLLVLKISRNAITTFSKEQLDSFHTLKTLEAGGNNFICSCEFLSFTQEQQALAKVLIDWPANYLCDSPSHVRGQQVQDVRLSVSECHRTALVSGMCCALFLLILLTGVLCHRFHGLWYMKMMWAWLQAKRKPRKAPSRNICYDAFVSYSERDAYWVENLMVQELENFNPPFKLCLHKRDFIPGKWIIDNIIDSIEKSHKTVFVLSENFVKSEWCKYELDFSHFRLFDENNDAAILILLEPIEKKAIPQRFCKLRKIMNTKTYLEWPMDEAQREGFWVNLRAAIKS
Protocol: In this experiment, multiple TLRs were stimulated with defined TLR agonists for 5-24 h as indicated, and the IL-8 production was measured. In each case the maximal stimulation by agonist is set at 100% and the antagonism by POPG is expressed as the relative % response. The Controls consist of no treatment, or treatment with POPG, in the absence of agonist as indicated. The agonists for the TLRs consist of Pam3Cys for TLR1/2, double stranded RNA (poly IC) for TLR3, Gram-negative lipopolysaccharide (LPS) for TLR4, and single stranded RNA (polyU) for TLR7/8.

sTLR4 = sTLR4 (Homo sapiens, UniProt O00206); experiment: sTLR4 binding to solid phase POPG; settings: sTLR4 1 μg/ml
Chain of sTLR4 (O00206 24-631): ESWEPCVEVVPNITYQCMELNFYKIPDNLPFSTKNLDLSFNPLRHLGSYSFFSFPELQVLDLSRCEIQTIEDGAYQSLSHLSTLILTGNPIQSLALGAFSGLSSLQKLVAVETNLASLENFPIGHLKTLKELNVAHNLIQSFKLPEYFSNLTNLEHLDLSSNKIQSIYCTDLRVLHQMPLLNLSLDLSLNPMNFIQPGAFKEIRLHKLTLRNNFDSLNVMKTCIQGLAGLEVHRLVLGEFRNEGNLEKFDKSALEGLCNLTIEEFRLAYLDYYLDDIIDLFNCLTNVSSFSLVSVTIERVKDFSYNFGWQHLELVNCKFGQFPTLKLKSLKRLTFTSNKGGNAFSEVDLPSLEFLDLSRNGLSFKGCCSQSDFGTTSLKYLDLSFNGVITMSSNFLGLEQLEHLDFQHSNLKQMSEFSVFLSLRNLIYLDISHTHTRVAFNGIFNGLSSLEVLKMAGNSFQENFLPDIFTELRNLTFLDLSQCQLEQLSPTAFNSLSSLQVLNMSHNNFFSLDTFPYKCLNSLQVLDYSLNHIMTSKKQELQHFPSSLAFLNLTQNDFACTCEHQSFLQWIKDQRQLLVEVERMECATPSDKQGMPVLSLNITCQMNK
Protocol: (A) POPG (1.25 nmole) was placed onto microtiter wells and the solvent evaporated. After blocking nonspecific binding with buffer A, MD-2, sTLR4 and PstB2 (1 μg/ml) in buffer A were added and incubated at 37° C. for 1 h. The binding of recombinant proteins to POPG was detected using anti-His antibody. […] The data shown are the means±S.E. from three separate experiments each with duplicate determinations.

TLR9 = biological target: T1, TLR9 (Mus musculus, UniProt Q9EQU3); experiment: TLR agonist TNFα production in RAW 264.7 cells, TLR9; assay type: cell-based; settings: CpG rich DNA, 24 h
T1 construct: endogenous in cells; host or cells: RAW 264.7
T1 sequence (Q9EQU3 26-1032): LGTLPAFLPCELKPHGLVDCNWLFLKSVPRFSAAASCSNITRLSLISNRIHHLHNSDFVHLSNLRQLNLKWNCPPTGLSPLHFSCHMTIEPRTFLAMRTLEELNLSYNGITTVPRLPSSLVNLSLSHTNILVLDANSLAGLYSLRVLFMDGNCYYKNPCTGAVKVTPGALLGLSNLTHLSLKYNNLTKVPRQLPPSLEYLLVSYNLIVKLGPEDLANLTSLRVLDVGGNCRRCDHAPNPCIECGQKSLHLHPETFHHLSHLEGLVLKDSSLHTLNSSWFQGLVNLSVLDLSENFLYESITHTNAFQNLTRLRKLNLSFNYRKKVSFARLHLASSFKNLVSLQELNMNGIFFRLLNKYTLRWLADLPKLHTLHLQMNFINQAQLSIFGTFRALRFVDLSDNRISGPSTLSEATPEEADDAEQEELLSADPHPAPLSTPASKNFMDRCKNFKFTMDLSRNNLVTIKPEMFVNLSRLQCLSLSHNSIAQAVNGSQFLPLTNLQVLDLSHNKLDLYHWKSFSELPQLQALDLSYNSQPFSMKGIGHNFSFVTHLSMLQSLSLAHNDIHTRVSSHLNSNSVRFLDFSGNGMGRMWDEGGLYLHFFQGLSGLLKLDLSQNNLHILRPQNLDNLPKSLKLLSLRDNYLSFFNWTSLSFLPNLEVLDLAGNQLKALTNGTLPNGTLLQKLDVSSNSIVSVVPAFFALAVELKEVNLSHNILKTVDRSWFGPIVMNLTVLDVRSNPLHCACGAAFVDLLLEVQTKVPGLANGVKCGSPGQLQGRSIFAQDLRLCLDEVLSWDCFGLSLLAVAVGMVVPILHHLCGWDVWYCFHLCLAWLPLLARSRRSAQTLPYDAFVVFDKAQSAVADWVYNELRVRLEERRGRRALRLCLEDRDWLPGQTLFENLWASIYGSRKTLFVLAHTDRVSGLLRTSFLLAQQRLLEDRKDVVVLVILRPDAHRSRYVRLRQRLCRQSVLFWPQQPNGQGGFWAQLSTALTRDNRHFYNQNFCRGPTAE
Protocol: In this experiment, multiple TLRs were stimulated with defined TLR agonists for 24 h and the TNFα production was measured. In each case, the maximal stimulation by agonist is set at 100% and the antagonism by POPG is expressed as the relative % response. The Controls consist of no treatment, or treatment with POPG in the absence of agonist as indicated. The agonists for the TLRs consist of Pam3Cys for TLR1/2, Mycoplasma pneumoniae membranes as an agonist for TLR2, mycoplasma derived MALP2 as an agonist for TLR 2/6, double stranded RNA (poly IC) for TLR3, Gram-negative lipopolysaccharide for TLR4, and CpG rich DNA as an agonist for TLR9. The TLR4 panel also contains the antagonist polymyxin B (PB) for comparison with POPG.

RSV [1] = experiment: RSV binding to Hep2 cells (FACScan); assay type: cell-based, Respiratory Syncytial Virus (RSV); settings: Hep2, multiplicity 50, 37 C 10 min, lipid 200 ug/ml
Protocol: Suspensions of 3×10^5 Hep2 cells were treated with RSV at a multiplicity of 50, at 37 C for 10 min, in either the absence of lipid, or the presence of 200 ug/ml POPG, or POPC, as indicated. The cells were next shifted to 0 C and washed 3 times with PBS. The cells were then incubated with monoclonal mouse anti-RSV antibody for 1 h at 0 C in PBS containing 5% BSA. The unbound antibody was removed by washing the cells 3 times with PBS, 5% BSA. Next, the cells were incubated with phycoerythrin conjugated rabbit anti-mouse antibody in PBS, 5% BSA for 2 h. Following this incubation the cells were washed 3 times with PBS and fixed overnight with 1% buffered formalin. The fixed cell preparation was washed 3 times with PBS and subjected to FACScan analysis as shown in the left panel of FIG. 38. The summary of the mean fluorescence intensity (MFI) for all conditions is shown in the right panel of FIG. 38.

[2] = test system: Respiratory Syncytial Virus (RSV); experiment: Cytopathic effects of RSV upon NHBE cells (photomicrography); assay type: cell-based
Protocol: Monolayers of NHBE cells were infected with RSV at a multiplicity of 3 for 72 h. Infections were performed on cells in either the absence or the presence of POPG (200 ug/ml). The cell monolayers were photographed at a magnification of 200×. Controls consisted of no viral challenge in either the presence or absence of POPG as indicated.
Monolayers of NHBE cells were infected with RSV at a multiplicity of 3 for 72 h. Infections were performed on cells in either the absence (b) or the presence (c,f) of POPG (200 ug/ml) and POPC (200 ug/ml) as indicated. Cells were photographed at a magnification of 200×. Controls (a,d,e) consisted of cell layers either not exposed to virus or exposed to POPG, and POPC in the absence of virus as indicated.
Monolayers of normal human bronchial epithelial cells were infected with RSV at a multiplicity of 0.5-1, in either the presence or absence of 200 ug/ml POPG, or 200 ug/ml POPC, as indicated.

RSV [3] = experiment: RSV plaque progression in Hep2 monolayers, lipid in agar overlay; assay type: cell-based, Respiratory Syncytial Virus (RSV); settings: lipid in agar overlay 5 hours after virus, POPG 200-500 ug/ml, POPC 500 ug/ml, 5 days
Protocol: Monolayers of Hep2 cells were subjected to RSV infection at levels that produce ca 100 plaques per well in quantitative plaque assays. The virus was incubated with the cells for 5 hours prior to agar overlay. The agar overlays contained either no additions, or POPG (200-500 ug/ml) or POPC (500 ug/ml).
The effects of POPG upon plaque formation as shown in Panel a of FIG. 39 were quantified in 3 independent experiments and are presented in this figure. The left panel of FIG. 40 provides the numbers of definite, and minute indefinite plaques formed in the absence and presence of POPG (200-500 ug/ml) as indicated. The right panel of FIG. 40 provides the numbers of definite plaques observed in the absence and presence of either POPG or POPC (200-500 ug/ml) as indicated.

CCCCCCCC/C=C\CCCCCCCC(=O)O[C@H](COC(=O)CCCCCCCCCCCCCCC)COP(=O)(O)OCC(O)CO (stereo partly drawn) [POPG, palmitoyl-oleoyl-phosphatidylglycerol]
activation of primary bronchial epithelial cells by multiple TLRs (IL-8) (multiple TLRs): inhibits activation
KC levels in BALF (BALB/c mice): significantly attenuated
MIP-2 levels in BALF (BALB/c mice): significantly attenuated
TNF-α secretion in BALF (BALB/c mice): significantly inhibited
infiltration of neutrophils in BALF (BALB/c mice): effectively inhibited
activity of TLR2 (IL-8 production) (TLR2): inhibits
binding to sTLR4 (sTLR4): not
activity of TLR9 (TNFα production) (TLR9): not
binding of RSV to epithelial cells (RSV [1]): blocks the binding
killing of cells by RSV ([2]; multiplicity 0.5-1, 72 h, 200 ug/ml): prevents the killing
cytopathic effects of RSV ([2]; multiplicity 3, 72 h, lipid 200 ug/ml): prevents the cytopathic effects
progression of RSV infection (plaques) (RSV [3]): arrests the progression; also recorded: indefinite minute plaques
